Where two headings read alike, the source gives them in different places.
What was measured:
[1] = molecular target: Full-length (FL)-PRMT5-MEP50 enzyme complex (Homo sapiens (Human), UniProt O14744); test: PRMT5-MEP50 Enzyme Methylation Assay; type: biochemical; as to Enzyme Methylation Assay IC50 1: top concentration 100000 nM
Experimental: PRMT5-MEP50 Enzyme Methylation Assay
PRMT5/MEP50 biochemical assay is a direct measurement of the methylation activity of the enzyme complex on a short peptide substrate derived from the N-terminus of H4 histone. The methylation experiment is performed with recombinant protein. The assessment of inhibitory effect (IC50) of small molecules is measured by the effectiveness of the compounds to inhibit this reaction.
To each well of a white ProxiPlus 384 well-plate, 100 nL of compound (1% DMSO in final assay volume of 10 μL) was dispensed, followed by the addition of 8 μL of 1× assay buffer (50 mM Bicine pH 8.0, 1 mM DTT, 0.004% Tween20, 0.01% BSA) containing 0.5 nM of Full-length (FL)-PRMT5-MEP50 enzyme complex (recombinant proteins from baculovirus-transfected Sf21 cells: FL-PRMT5; MW=[…] and FL-MEP50; MW=38614). Plates were sealed and placed in a 37° C. humidified chamber for 30 minutes pre-incubation with compounds. Subsequently, each reaction was initiated by the addition of 2 μL 1× assay buffer containing 75 nM biotinylated H4R3(Me1) peptide, and 15 μM S-(5′-Adenosyl)-L-Methionine Chloride (SAM). The final reaction in each well of 10 μL consists of 0.5 nM PRMT5-MEP50, 75 nM biotinylated-peptide, and 15 μM SAM. Methylation reactions were allowed to proceed for 150 minutes in a sealed plate at 37° C. Reactions were immediately quenched by the addition of 1 μL of 10% formic acid. Plates were then frozen and shipped to SAMDI™ Tech Inc. to determine the percent conversion from […]. IC50 values were determined by 7 parameters biphasic fit model plotting the percent product conversion vs. (Log10) compound concentrations.

PRMT5 = PRMT5 (Homo sapiens (Human), UniProt O14744); test: PRMT5 Cell Target Engagement (TE) Assay; type: cell-based; settings: treated 3 days, nuclear SDMA by high content imaging, top concentration 10000 nM
Chain of PRMT5 (O14744 whole entry): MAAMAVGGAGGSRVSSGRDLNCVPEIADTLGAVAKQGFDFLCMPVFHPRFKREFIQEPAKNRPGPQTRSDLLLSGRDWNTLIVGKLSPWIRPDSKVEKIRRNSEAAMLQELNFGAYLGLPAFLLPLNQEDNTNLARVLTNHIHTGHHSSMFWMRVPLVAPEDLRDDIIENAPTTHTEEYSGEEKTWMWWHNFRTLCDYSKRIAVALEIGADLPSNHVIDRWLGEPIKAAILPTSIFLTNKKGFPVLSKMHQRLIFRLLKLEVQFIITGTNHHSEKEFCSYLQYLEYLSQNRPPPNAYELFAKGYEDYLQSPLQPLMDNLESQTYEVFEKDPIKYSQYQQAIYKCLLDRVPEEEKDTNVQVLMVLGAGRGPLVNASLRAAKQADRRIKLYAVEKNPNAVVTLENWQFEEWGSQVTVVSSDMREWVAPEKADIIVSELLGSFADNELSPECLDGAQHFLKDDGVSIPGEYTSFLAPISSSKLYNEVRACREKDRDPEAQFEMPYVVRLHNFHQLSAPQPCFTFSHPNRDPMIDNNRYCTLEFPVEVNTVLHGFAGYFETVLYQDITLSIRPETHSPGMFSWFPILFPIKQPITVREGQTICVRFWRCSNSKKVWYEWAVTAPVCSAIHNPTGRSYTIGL
Chain of PRMT5 (Q9BQA1 whole entry partner): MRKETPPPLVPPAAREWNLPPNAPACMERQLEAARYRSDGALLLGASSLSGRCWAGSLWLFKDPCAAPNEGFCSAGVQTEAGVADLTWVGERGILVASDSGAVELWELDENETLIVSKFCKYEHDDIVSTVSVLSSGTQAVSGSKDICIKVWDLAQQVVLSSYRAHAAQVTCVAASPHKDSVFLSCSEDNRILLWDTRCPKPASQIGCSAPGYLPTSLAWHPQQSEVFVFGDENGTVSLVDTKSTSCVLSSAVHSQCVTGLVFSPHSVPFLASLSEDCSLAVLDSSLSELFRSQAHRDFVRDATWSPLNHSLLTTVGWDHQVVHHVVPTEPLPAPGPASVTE
Description: PRMT5 Cell Target Engagement (TE) Assay
The PRMT5 TE assay is a biomarker assay for identifying compounds that inhibit symmetric dimethylation of arginine (SDMA) of PRMT5 substrates. This assay detects symmetrically dimethylated nuclear proteins using high content imaging technology. Detection of the expression of symmetrically dimethylated nucleo proteins is through a mixture of primary rabbit monoclonal antibodies to SDMA (CST 13222), which in turn recognized by an Alexafluor 488 dye-conjugated anti-rabbit IgG secondary antibody. The IN Cell Analyzer 2200 measures nuclear Alexafluor 488 fluorescent dye intensity that is directly related to the level of expression of symmetrically dimethylated nuclear proteins at the single cell level. Nuclear AF488 dye intensities are compared to the mean value for DMSO treated cells […] to report percent of inhibition for each compound-treated well.
Each well of a BD falcon collagen coated black/clear bottom 384-well plate was seeded with 4000 MCF-7 cells and allowed to attach for 5 hours. Media from cell plate was removed at 0.5 mm above the bottom of the plate and replaced with 30 μL of fresh media containing 1.2× compounds in 0.1% DMSO. Cells were treated for 3 days in 37° C. CO2 incubator. On day 3, cells were fixed with Cytofix, permeablized with 0.4% Triton-X-100/Cytofix, and washed with D-PBS without Ca/Mg. Cells were blocked with Licor Odessey blocking reagent for one hour at room temperature, followed by incubation with anti-SDMA (1:1000) antibody at 4° C. overnight. 1 antibody was removed, followed by three washings with DPBS without Ca/Mg and 0.05% Tween20. Hoechst (5 μg/ml), Cell Mask deep stain (1:2000) and Alexa488-conjugated goat anti-rabbit IgG (2 μg/mL) was added for 1 hour at room temperature. A final washing step (three washes) was performed before sealing plate for imaging on In Cell Analyzer 2200. Images from analyzer were uploaded to Columbus (at WP) for image analysis. IC50 values were determined by 4 parameters robust fit of percent fluorescence units vs. (Log10) compound concentrations.

[2] = read-out: Enzyme Methylation Assay IC50_1
[3] = read-out: Enzyme Methylation Assay IC50_2
[4] = MCF-7 cells, read-out: TE Assay EC50

Chain of Full-length (FL)-PRMT5-MEP50 enzyme complex (O14744 whole entry): as the sequence (O14744 whole entry) above
Chain of Full-length (FL)-PRMT5-MEP50 enzyme complex (Q9BQA1 whole entry partner): as the sequence (Q9BQA1 whole entry partner) above

Row | Compound | IC50 [1, 2] [nM] | IC50 [1, 3] [nM] | EC50 (PRMT5; [4]) [nM] | EC50 (PRMT5; TE Assay EC50, MCF-7 cells) [nM]
1 | CC[C@H]1CN(C[C@@H](O)[C@@H]2Cc3ccccc3CN2)C(=O)c2ccc(Br)cc21 (single isomer, unassigned) [Example 1] | 5.38 | 3740 | 2860 | 
2 | CC[C@H]1CN(C[C@@H](O)[C@@H]2Cc3ccccc3CN2)C(=O)c2ccc(Br)cc21 (single isomer, unassigned) [Example 2] | 0.21 | 172 | 213 | 
3 | CC[C@H]1CN(C[C@@H](O)[C@@H]2Cc3ccccc3CN2)C(=O)c2ccc(Br)cc21 (single isomer, unassigned) [Example 3] | 411 | 21300 | ≥ 10000 | 
4 | CC[C@H]1CN(C[C@@H](O)[C@@H]2Cc3ccccc3CN2)C(=O)c2ccc(Br)cc21 (single isomer, unassigned) [Example 4] | 45.8 | 25800 | ≥ 10000 | 
5 | CC[C@H]1CN(C[C@@H](O)[C@@H]2Cc3ccccc3CN2)C(=O)c2ccc(-c3ncnn3C)cc21 (single isomer, unassigned) [Example 5] | 465 | ≥ 100000 | ≥ 10000 | 
6 | CC[C@H]1CN(C[C@@H](O)[C@@H]2Cc3ccccc3CN2)C(=O)c2ccc(-c3ncnn3C)cc21 (single isomer, unassigned) [Example 6] | 3.82 | 5080 | 1440 | 
7 | CC[C@H]1CN(C[C@@H](O)[C@@H]2Cc3ccccc3CN2)C(=O)c2ccc(-c3ncnn3C)cc21 (single isomer, unassigned) [Example 7] | 0.31 | 313 | 143 | 
8 | CC[C@H]1CN(C[C@@H](O)[C@@H]2Cc3ccccc3CN2)C(=O)c2ccc(-c3ncnn3C)cc21 (single isomer, unassigned) [Example 8] | 49 | 28500 | 7680 | 
9 | CCC1CN(C[C@@H](O)[C@@H]2Cc3ccccc3CN2)C(=O)c2ccc(-c3ncnn3C3CC3)cc21 (single isomer, unassigned) [Example 10] | 0.4 | 374 | 22.6 | 
10 | CC[C@H]1CN(C[C@@H](O)[C@@H]2Cc3ccccc3CN2)C(=O)c2ccc(C(=O)N3C4CCC3COC4)cc21 (single isomer, unassigned) [Example 13] | 0.36 | 270 |  | 30
11 | CC[C@H]1CN(C[C@@H](O)[C@@H]2Cc3ccccc3CN2)C(=O)c2ccc(C(=O)N3C4CCC3COC4)cc21 (single isomer, unassigned) [Example 14] | 0.24 | 31.7 |  | 2.52
12 | CC[C@H]1CN(C[C@@H](O)[C@@H]2Cc3ccccc3CN2)C(=O)c2ccc(C(=O)N3C4CCC3COC4)cc21 (single isomer, unassigned) [Example 15] | 9.54 | 3210 | 120 | 
13 | CC[C@H]1CN(C[C@@H](O)[C@@H]2Cc3ccccc3CN2)C(=O)c2ccc(C(=O)N3C4CCC3COC4)cc21 (single isomer, unassigned) [Example 16] | 17.6 | 8840 | 829 | 
14 | CC1(C)CN(C[C@@H](O)[C@@H]2Cc3ccccc3CN2)C(=O)c2ccc(-c3ncnn3C3CC3)cc21 [Example 9, 6-(1-cyclopropyl-1H-1,2,4-triazol-5-yl)-2-{(2R)-2-hydroxy-2-[(3S)-1,2,3,4-tetrahydroisoquinolin-3-yl]ethyl}-4,4-dimethyl-3,4-dihydroisoquinolin-1(2H)-one] | 0.47 | 422 | 29.5 | 
15 | O=C1c2ccc(-c3ncnn3C3CC3)cc2C2(CCC2)CN1C[C@@H](O)[C@@H]1Cc2ccccc2CN1 [Example 11, 6′-(1-cyclopropyl-1H-1,2,4-triazol-5-yl)-2′-{(2R)-2-hydroxy-2-[(3S)-1,2,3,4-tetrahydroisoquinolin-3-yl]ethyl}-2′,3′-dihydro-1′H-spiro[cyclobutane-1,4′-isoquinolin]-1′-one] | 0.29 | 127 | 17 | 
16 | CCC1CN(CC(O)[C@@H]2Cc3ccccc3CN2)C(=O)c2ccc(C(=O)N3C4CCC3COC4)cc21 (stereo partly drawn) [Example 12, 4-ethyl-2-{2-hydroxy-2-[(3S)-1,2,3,4-tetrahydroisoquinolin-3-yl]ethyl}-6-(3-oxa-8-azabicyclo[3.2.1]oct-8-ylcarbonyl)-3,4-dihydroisoquinolin-1(2H)-one] | 0.63 | 253 |  | 29.8
17 | CC1(C)CN(C[C@@H](O)[C@@H]2Cc3ccccc3CN2)C(=O)c2ccc(Br)cc21 [Example 17, 6-bromo-2-((R)-2-hydroxy-2-((S)-1,2,3,4-tetrahydroisoquinolin-3-yl)ethyl)-4,4-dimethyl-3,4-dihydroisoquinolin-1(2H)-one] | 0.61 | 368 | 200 | 
18 | CC1(C)CN(C[C@H](O)[C@@H]2Cc3ccccc3CN2)C(=O)c2ccc(Br)cc21 [Example 18, 6-bromo-2-((S)-2-hydroxy-2-((S)-1,2,3,4-tetrahydroisoquinolin-3-yl)ethyl)-4,4-dimethyl-3,4-dihydroisoquinolin-1(2H)-one] | 225 | ≥ 100000 | ≥ 10000 | 
19 | CC1(C)CN(C[C@@H](O)[C@@H]2Cc3ccccc3CN2)C(=O)c2ccc(C(=O)N3C4CCC3COC4)cc21 [Example 19, 6-(3-oxa-8-azabicyclo[3.2.1]octane-8-carbonyl)-2-((R)-2-hydroxy-2-((S)-1,2,3,4-tetrahydroisoquinolin-3-yl)ethyl)-4,4-dimethyl-3,4-dihydroisoquinolin-1(2H)-one] | 0.53 | 138 |  | 9.5
20 | CC1(C)CN(C[C@H](O)[C@@H]2Cc3ccccc3CN2)C(=O)c2ccc(C(=O)N3C4CCC3COC4)cc21 [Example 20, 6-(3-oxa-8-azabicyclo[3.2.1]octane-8-carbonyl)-2-((S)-2-hydroxy-2-((S)-1,2,3,4-tetrahydroisoquinolin-3-yl)ethyl)-4,4-dimethyl-3,4-dihydroisoquinolin-1(2H)-one] | 12.9 | 4070 | 153 | 
21 | CC1(C)CN(C[C@@H](O)[C@@H]2Cc3ccccc3CN2)C(=O)c2ccc(C(=O)N3[C@@H]4CC[C@H]3C[C@@H](O)C4)cc21 [Example 21, 2-((R)-2-hydroxy-2-((S)-1,2,3,4-tetrahydroisoquinolin-3-yl)ethyl)-6-((1R,3R,5S)-3-hydroxy-8-azabicyclo[3.2.1]octane-8-carbonyl)-4,4-dimethyl-3,4-dihydroisoquinolin-1(2H)-one] | 0.52 | 88.1 |  | 5.52
22 | CC1(C)CN(C[C@H](O)[C@@H]2Cc3ccccc3CN2)C(=O)c2ccc(C(=O)N3[C@@H]4CC[C@H]3C[C@@H](O)C4)cc21 [Example 22, 2-((S)-2-hydroxy-2-((S)-1,2,3,4-tetrahydroisoquinolin-3-yl)ethyl)-6-((1R,3S,5S)-3-hydroxy-8-azabicyclo[3.2.1]octane-8-carbonyl)-4,4-dimethyl-3,4-dihydroisoquinolin-1(2H)-one] | 50.1 | 15300 | 5280 | 
23 | CO[C@H]1C[C@H]2CC[C@@H](C1)N2C(=O)c1ccc2c(c1)C(C)(C)CN(C[C@@H](O)[C@@H]1Cc3ccccc3CN1)C2=O [Example 23, 2-((R)-2-hydroxy-2-((S)-1,2,3,4-tetrahydroisoquinolin-3-yl)ethyl)-6-((1R,3R,5S)-3-methoxy-8-azabicyclo[3.2.1]octane-8-carbonyl)-4,4-dimethyl-3,4-dihydroisoquinolin-1(2H)-one] | 0.5 | 97.7 |  | 2.14

Source: US11098059B2, “PRMT5 inhibitors” (Merck Sharp & Dohme Corp., priority 2017, dated 2021)
